Measured values from US10196369B2, “Spirocyclic EBI2 modulators” (Sanford Burnham Prebys Medical Discovery Institute, priority 2013, dated 2019).
pIC50: −log10 of the molar value.

Molecular target: EBI2 (Homo sapiens, UniProt P32249)
Assay: Cell-based luminescent assay of EBI2 modulation (7a,25-OHC stimulated)
Settings: 7a,25-OHC final assay concentration 80 nM, 60 minute incubation
Experimental: To assess EBI2 modulation, the compounds described herein were assayed in the following cell-based luminescent assay:
1) Plated 600 cells/well in 4 μL of assay media into columns 1-48 of a 1536-well assay plate, using a liquid dispenser.
2) Centrifuged plates at 1000 rpm for 1 minute and covered with lids.
3) Incubated overnight at 37° C., 100% relative humidity, 5% CO2.
1) Centrifuged compound plates containing compounds described herein at 500 rpm for 1 minute.
2) Added compounds into assay plate col 5-48 to final concentration 4-5 uM. Added matching amount of DMSO to positive and negative control wells in columns 1-4.
3) Dispensed 2 uL/well of assay media to columns 1-2 for the positive control wells.
4) Added 2 uL/well of 400 nM 7a,25-OHC (final assay concentration=80 nM) in assay media to columns 3-48 for the negative control and test compound wells.
5) Centrifuged plates at 1000 rpm for 1 minute and re-lid plates.
6) Incubated plates at 37° C., 100% relative humidity, 5% CO2 for 60 minutes.
7) Following 60 minute incubation, delivered 2.5 uL of Detection Reagent solution to each assay plate (Columns 1-48) using a liquid handler.
8) Centrifuged plates at 2000 rpm for 2 minutes and re-lid plates.
9) Incubated plates for 60 minutes at 25 degrees in the dark.
10) Read plates using the Viewlux, Envision or other suitable plate reader using a luminescence detection.
The experimental values were normalized by the difference between values from neutral and stimulator control wells in each plate. Then normalized data was corrected to remove systematic plate patterns due to artifacts such as dispensing tip issues etc.

Sequence of EBI2 (P32249 whole entry): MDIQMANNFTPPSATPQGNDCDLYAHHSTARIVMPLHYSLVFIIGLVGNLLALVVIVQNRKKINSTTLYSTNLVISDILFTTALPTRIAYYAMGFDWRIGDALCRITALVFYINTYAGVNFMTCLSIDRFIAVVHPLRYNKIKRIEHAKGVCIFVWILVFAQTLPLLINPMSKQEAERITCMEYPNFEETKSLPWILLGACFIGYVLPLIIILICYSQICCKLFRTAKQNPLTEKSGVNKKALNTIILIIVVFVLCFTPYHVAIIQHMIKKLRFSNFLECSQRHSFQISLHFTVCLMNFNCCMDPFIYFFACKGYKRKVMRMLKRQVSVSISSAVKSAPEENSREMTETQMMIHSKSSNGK

Structure (SMILES) | pIC50
O=C(C#Cc1ccc(Br)cc1)N1CC2(CCN(C(=O)c3ccc(Cl)cc3)CC2)C1 [Compound C64, 3-(4-bromophenyl)-1-{7-[(4-chlorophenyl)carbonyl]-2,7-diazaspiro[3.5]non-2-yl}prop-2-yn-1-one] | 6.30 to 7.00
O=C(C#Cc1ccc(Cl)cc1)N1CCC2(CC1)CN(Cc1ccc(C(F)(F)F)cc1)C2 [Compound C78, 3-(4-chlorophenyl)-1-(2-{[4-(trifluoromethyl)phenyl]methyl}-2,7-diazaspiro[3.5]non-7-yl)prop-2-yn-1-one] | > 7.00
COc1cc(CN2CCC3(CC2)CN(C(=O)c2cc4cc(Br)ccc4[nH]2)C3)cc(OC)c1 [Compound C62, 7-[(3,5-dimethoxyphenyl)methyl]-2,7-diazaspiro[3.5]non-2-yl 5-bromoindol-2-yl ketone] | 6.30 to 7.00
O=C(c1ccc(Cl)cc1)N1CCC2(CC1)CN(C(=O)c1cc3ccc(Br)cc3[nH]1)C2 [Compound C59, 6-bromoindol-2-yl 7-[(4-chlorophenyl)carbonyl]-2,7-diazaspiro[3.5]non-2-yl ketone] | 5.30 to 6.30
O=C(c1cc2cc(Br)ccc2[nH]1)N1CC2(CCN(Cc3ccc(C(F)(F)F)cc3)CC2)C1 [Compound C50, 5-bromoindol-2-yl 7-{[4-(trifluoromethyl)phenyl]methyl}-2,7-diazaspiro[3.5]non-2-yl ketone] | 5.30 to 6.30
O=C(C#Cc1ccc(F)cc1)N1CC2(CCN(C(=O)c3ccc(Cl)cc3)CC2)C1 [Compound C94, 1-{7-[(4-chlorophenyl)carbonyl]-2,7-diazaspiro[3.5]non-2-yl}-3-(4-fluorophenyl)prop-2-yn-1-one] | 6.30 to 7.00
O=C(/C=C/c1ccc(Br)cc1)N1CC2(CCN(C(=O)c3ccc(F)c(C(F)(F)F)c3)CC2)C1 [Compound C22, (2E)-3-(4-bromophenyl)-1-(7-{[4-fluoro-3-(trifluoromethyl)phenyl]carbonyl}-2,7-diazaspiro[3.5]non-2-yl)prop-2-en-1-one] | > 7.00
O=C(/C=C/c1ccc(Br)cc1)N1CC2(CCN(C(=O)c3cc(F)cc(F)c3)CC2)C1 [Compound C44, (2E)-1-{7-[(3,5-difluorophenyl)carbonyl]-2,7-diazaspiro[3.5]non-2-yl}-3-(4-bromophenyl)prop-2-en-1-one] | > 7.00
O=C(C#Cc1ccc(F)cc1)N1CC2(CCN(C(=O)c3ccc(Br)cc3)CC2)C1 [Compound C95, 1-{7-[(4-bromophenyl)carbonyl]-2,7-diazaspiro[3.5]non-2-yl}-3-(4-fluorophenyl)prop-2-yn-1-one] | > 7.00
O=C(/C=C/c1ccc(Br)cc1)N1CC2(CCN(C(=O)c3ccc(Cl)cc3)CC2)C1 [Compound C19, (2E)-3-(4-bromophenyl)-1-{7-[(4-chlorophenyl)carbonyl]-2,7-diazaspiro[3.5]non-2-yl}prop-2-en-1-one] | > 7.00
O=C(C#Cc1ccc(Br)cc1)N1CCC2(CC1)CN(C(=O)c1ccc(C(F)(F)F)cc1)C2 [Compound C71, 3-(4-bromophenyl)-1-(2-{[4-(trifluoromethyl)phenyl]carbonyl}-2,7-diazaspiro[3.5]non-7-yl)prop-2-yn-1-one] | > 7.00
O=C(/C=C/c1ccc(Br)cc1)N1CCC2(CC1)CN(Cc1ccc(Cl)cc1)C2 [Compound C6, (2E)-3-(4-bromophenyl)-1-{2-[(4-chlorophenyl)methyl]-2,7-diazaspiro[3.5]non-7-yl}prop-2-en-1-one] | > 7.00
O=C(C#Cc1ccc(Br)cc1)N1CCC2(CC1)CN(Cc1ccc(Cl)cc1)C2 [Compound C69, 3-(4-bromophenyl)-1-{2-[(4-chlorophenyl)methyl]-2,7-diazaspiro[3.5]non-7-yl}prop-2-yn-1-one] | > 7.00
O=C(c1ccc(C(F)(F)F)c(F)c1)N1CCC2(CC1)CCN(C(=O)c1cc3cc(Cl)ccc3[nH]1)CC2 [Compound C100, 5-chloroindol-2-yl 9-{[3-fluoro-4-(trifluoromethyl)phenyl]carbonyl}-3,9-diazaspiro[5.5]undec-3-yl ketone] | > 7.00
O=C(C#Cc1ccc(Br)cc1)N1CCC2(CC1)CN(Cc1ccc(Br)cc1)C2 [Compound C72, 3-(4-bromophenyl)-1-{2-[(4-bromophenyl)methyl]-2,7-diazaspiro[3.5]non-7-yl}prop-2-yn-1-one] | > 7.00
O=C(C#Cc1ccc2c(c1)OCO2)N1CCC2(CC1)CN(C(=O)c1ccc(Cl)cc1)C2 [Compound C98, 3-(2H-benzo[3,4-d]1,3-dioxolen-5-yl)-1-{2-[(4-chlorophenyl)carbonyl]-2,7-diazaspiro[3.5]non-7-yl}prop-2-yn-1-one] | 6.30 to 7.00

Structure (SMILES) | pIC50
O=C(c1cc2cc(Br)ccc2[nH]1)N1CC2(CCN(C(=O)c3ccc(F)cc3C(F)(F)F)CC2)C1 [Compound C48, 5-bromoindol-2-yl 7-{[4-fluoro-2-(trifluoromethyl)phenyl]carbonyl}-2,7-diazaspiro[3.5]non-2-yl ketone] | > 7.00
COc1ccc(C(=O)N2CC3(CCN(C(=O)/C=C/c4ccc(Br)cc4)CC3)C2)cc1OC [Compound C9, (2E)-1-{2-[(3,4-dimethoxyphenyl)carbonyl]-2,7-diazaspiro[3.5]non-7-yl}-3-(4-bromophenyl)prop-2-en-1-one] | > 7.00
O=C(c1ccc(-c2nnn[nH]2)cc1)N1CCC2(CC1)CN(C(=O)c1cc3cc(Cl)ccc3[nH]1)C2 [Compound C42, 5-chloroindol-2-yl 7-[(4-(1H-1,2,3,4-tetraazol-5-yl)phenyl)carbonyl]-2,7-diazaspiro[3.5]non-2-yl ketone] | 5.30 to 6.30
O=C(C#Cc1ccc(Br)cc1)N1CCC2(CC1)CN(C(=O)c1ccc(F)cc1)C2 [Compound C67, 3-(4-bromophenyl)-1-{2-[(4-fluorophenyl)carbonyl]-2,7-diazaspiro[3.5]non-7-yl}prop-2-yn-1-one] | 5.30 to 6.30
COc1ccc(C(=O)N2CCC3(CC2)CN(C(=O)C#Cc2ccc(F)cc2F)C3)cc1 [Compound C97, 3-(2,4-difluorophenyl)-1-{7-[(4-methoxyphenyl)carbonyl]-2,7-diazaspiro[3.5]non-2-yl}prop-2-yn-1-one] | 6.30 to 7.00
O=C(/C=C/c1ccc(Br)cc1)N1CC2(CCN(C(=O)c3ccc(F)cc3)CC2)C1 [Compound C20, (2E)-3-(4-bromophenyl)-1-{7-[(4-fluorophenyl)carbonyl]-2,7-diazaspiro[3.5]non-2-yl}prop-2-en-1-one] | > 7.00
O=C(c1ccc(F)cc1)N1CCC2(CC1)CN(C(=O)c1cc3cc(Br)ccc3[nH]1)C2 [Compound C47, 5-bromoindol-2-yl 7-[(4-fluorophenyl)carbonyl]-2,7-diazaspiro[3.5]non-2-yl ketone] | 6.30 to 7.00
O=C(c1ccc(-c2nnn[nH]2)cc1)N1CC2(CCN(C(=O)c3cc4cc(Cl)ccc4[nH]3)CC2)C1 [Compound C16, 5-chloroindol-2-yl 2-[(4-(1H-1,2,3,4-tetraazol-5-yl)phenyl)carbonyl]-2,7-diazaspiro[3.5]non-7-yl ketone] | 5.30 to 6.30
O=C(c1ccc(C(F)(F)F)cc1)N1CCC2(CC1)CN(C(=O)c1cc3cc(Cl)ccc3[nH]1)C2 [Compound C39, 5-chloroindol-2-yl 7-{[4-(trifluoromethyl)phenyl]carbonyl}-2,7-diazaspiro[3.5]non-2-yl ketone] | > 7.00
O=C(C#Cc1ccc(F)cc1)N1CCC2(CC1)CN(C(=O)c1ccc(C(F)(F)F)cc1)C2 [Compound C88, 3-(4-fluorophenyl)-1-(2-{[4-(trifluoromethyl)phenyl]carbonyl}-2,7-diazaspiro[3.5]non-7-yl)prop-2-yn-1-one] | > 7.00
O=C(/C=C/c1ccc(Br)cc1)N1CCC2(CC1)CN(C(=O)c1ccc(F)cc1C(F)(F)F)C2 [Compound C52, (2E)-3-(4-bromophenyl)-1-(2-{[4-fluoro-2-(trifluoromethyl)phenyl]carbonyl}-2,7-diazaspiro[3.5]non-7-yl)prop-2-en-1-one] | > 7.00
O=C(/C=C/c1ccc(Br)cc1)N1CC2(CCN(Cc3ccc(F)cc3)CC2)C1 [Compound C25, (2E)-3-(4-bromophenyl)-1-{7-[(4-fluorophenyl)methyl]-2,7-diazaspiro[3.5]non-2-yl}prop-2-en-1-one] | 6.30 to 7.00
O=C(c1ccc(F)cc1)N1CCC2(CC1)CN(C(=O)c1cc3ccc(Br)cc3[nH]1)C2 [Compound C57, 6-bromoindol-2-yl 7-[(4-fluorophenyl)carbonyl]-2,7-diazaspiro[3.5]non-2-yl ketone] | 5.30 to 6.30
Nc1ccc(C(=O)N2CCC3(CC2)CN(C(=O)/C=C/c2ccc(Br)cc2)C3)cc1 [Compound C51, (2E)-1-{7-[(4-aminophenyl)carbonyl]-2,7-diazaspiro[3.5]non-2-yl}-3-(4-bromophenyl)prop-2-en-1-one] | > 7.00
O=C(C#Cc1ccc(Br)cc1)N1CCC2(CC1)CN(Cc1ccc(C(F)(F)F)cc1)C2 [Compound C73, 3-(4-bromophenyl)-1-(2-{[4-(trifluoromethyl)phenyl]methyl}-2,7-diazaspiro[3.5]non-7-yl)prop-2-yn-1-one] | > 7.00
O=C(c1cc2cc(Cl)ccc2[nH]1)N1CCC2(CC1)CN(Cc1cccc(F)c1)C2 [Compound C4, 5-chloroindol-2-yl 2-[(3-fluorophenyl)methyl]-2,7-diazaspiro[3.5]non-7-yl ketone] | > 7.00
